Drawing on patent US20130203659A1 (priority 2006, published 2013), this text covers IC50 and EC50 for ten molecules.

The target of assay [1] is T1, human GLP-1 receptor (Homo sapiens, UniProt P43220).
T1 construct: expressed in transfected cells; host or cells: CHOK1 cells with a cAMP-regulated luciferase reporter construct
Kind of assay: In vitro GLP-1 receptor binding (125I-GLP-1 ligand binding assay), human receptor. As for the experimental part:
Cells were sedimented at 1500 rpm for 10 minutes. The resulting pellets were homogenized in 15 mls of ice cold sucrose buffer (25 mM Tris-HCl, 0.32 M Sucrose, 0.25 g/L sodium azide, pH 7.4) with a motorized, glass fitted, Teflon homogenizer. The homogenate was centrifuged at 48,000×g at 4° C. for 10 minutes, resuspended in 25 ml assay buffer (50 mM Tris-HCl, 5 mM MgCl2, 10 mg/ml protease-free BSA, 0.1 mg/ml STI, and 0.1 mg/ml Pefabloc, pH 7.4) with a Tissue-Tearor (Biospec Products), then centrifuged again at 48,000×g for 10 minutes. The pellets were homogenized for a third time in 15 ml assay buffer using the Tissue-Tearor and again centrifuged at 48,000×g for 10 minutes. The resulting pellet was resuspended in assay buffer at a wet weight concentration of 4 mg/ml.
Binding assays were performed in 96-well U-bottom plates. […] Bound radioactivity was determined using a TopCount microplate scintillation and luminescence counter (Packard Instrument Company, PerkinElmer, Shelton, Conn.). Nonlinear regression analyses of resulting concentration curves were performed using GraphPad Prism (GraphPad Software, Inc., San Diego, Calif.).

In assay [2] the target is T1, human GLP-1 receptor. Kind of assay: GLP-1R reporter assay (cAMP-regulated luciferase, CHOK1 cells), human receptor. The format is cell-based. The protocol: (§1) A. GLP-1R Reporter Assay:
(§2) Increased cAMP levels were measured through enhanced expression of a luciferase reporter gene. […] The evening prior to assay, the cells were washed, the medium replaced with serum-free medium containing 0.5% protease-free bovine serum albumin (BSA), and then cultured overnight. […] Cell lysates were assayed for luciferase activity using the Luciferase Assay System (Promega Corporation, Madison, Wis.). Luciferase activity was measured using a Luminoskan Ascent (Thermo Electron Corporation, Marietta, Ohio). Nonlinear regression analyses of resultant compound concentration curves were performed using GraphPad Prism (GraphPad Software, Inc., San Diego, Calif.).

A further assay deals with T2, mouse GLP-1 receptor (Mus musculus, UniProt O35659).
T2 construct: expressed in transfected cells; host or cells: CHOK1 cells with a cAMP-regulated luciferase reporter construct
T2 sequence (O35659 22-463): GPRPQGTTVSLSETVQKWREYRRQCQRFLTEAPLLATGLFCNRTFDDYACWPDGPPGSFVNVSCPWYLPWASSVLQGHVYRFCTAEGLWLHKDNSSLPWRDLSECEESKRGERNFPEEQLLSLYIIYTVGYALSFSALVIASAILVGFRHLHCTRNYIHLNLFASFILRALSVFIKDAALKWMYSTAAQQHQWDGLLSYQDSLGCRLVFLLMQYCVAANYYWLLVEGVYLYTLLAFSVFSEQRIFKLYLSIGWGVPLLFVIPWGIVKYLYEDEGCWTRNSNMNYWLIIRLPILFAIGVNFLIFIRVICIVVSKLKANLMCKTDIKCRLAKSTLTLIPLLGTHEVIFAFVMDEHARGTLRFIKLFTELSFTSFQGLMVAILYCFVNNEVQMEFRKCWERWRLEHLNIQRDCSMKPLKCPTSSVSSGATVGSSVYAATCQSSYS
In words: GLP-1R reporter assay (cAMP-regulated luciferase, CHOK1 cells), mouse receptor. Format: cell-based. Conditions: 6 hours exposure. The protocol: as §1, §2
In general terms: Reporter assays use an easily measured gene product as a stand-in for the process of interest.

Where [3] appears, read: membranes of CHOK1 cells expressing human GLP-1 receptor, 0.2 nM 125I-GLP-1.
Where [4] appears, read: luciferase reporter, 6 hours exposure, read-out: EC50 human.

By IC50 is commonly meant the concentration that inhibits the measured activity by half. A lower IC50 goes with greater potency. As usually defined, the EC50 is the concentration giving half of the maximal effect.

Read-outs that look alike come from different tables or passages of the source. Positions of bridges follow the written chain, without caps; N, C: chain ends. Residues, ends and D or L forms follow the SMILES beside them. No end group written: not given here. branched PEG 40 kDa = branched polyethylene glycol of 40 kDa Where only a bound is given, the exact number is not on record here.

T1 sequence (P43220 24-463): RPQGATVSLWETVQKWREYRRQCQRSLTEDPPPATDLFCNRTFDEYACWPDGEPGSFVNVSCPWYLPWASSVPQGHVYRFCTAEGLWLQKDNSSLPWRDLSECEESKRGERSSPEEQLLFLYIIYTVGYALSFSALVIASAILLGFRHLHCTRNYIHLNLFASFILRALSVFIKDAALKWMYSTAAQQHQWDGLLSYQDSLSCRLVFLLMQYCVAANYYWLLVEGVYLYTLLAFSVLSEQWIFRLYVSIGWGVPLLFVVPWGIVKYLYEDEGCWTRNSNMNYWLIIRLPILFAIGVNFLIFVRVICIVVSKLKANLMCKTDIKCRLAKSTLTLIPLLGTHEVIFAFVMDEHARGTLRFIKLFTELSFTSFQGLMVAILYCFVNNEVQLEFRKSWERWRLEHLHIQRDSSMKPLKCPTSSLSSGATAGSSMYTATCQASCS

“cgGLP-7: SEQ ID NO: 6 + 30k PEG (HGEGTFTSDVSSYLEGC(PEG 30 kDa)AAKEFIAWLVKGRG)” yielded a half-maximal inhibitory concentration (IC50) with human GLP-1 receptor [1] (setting [3]) of over 1000 nM.
Turning to `CC[C@H](C)[C@H](NC(=O)[C@H](Cc1ccccc1)NC(=O)[C@H](CCC(=O)O)NC(=O)[C@H](CCCCN)NC(=O)[C@H](C)NC(=O)[C@H](C)NC(=O)[C@H](CCC(N)=O)NC(=O)CNC(=O)[C@H](CCC(=O)O)NC(=O)[C@H](CC(C)C)NC(=O)[C@H](Cc1ccc(O)cc1)NC(=O)[C@H](CO)NC(=O)[C@H](CO)NC(=O)[C@@H](NC(=O)[C@H](CC(=O)O)NC(=O)[C@H](CO)NC(=O)[C@@H](NC(=O)[C@H](Cc1ccccc1)NC(=O)[C@@H](NC(=O)CNC(=O)[C@H](CCC(=O)O)NC(=O)[C@H](C)NC(=O)[C@H](Cc1c[nH]cn1)NC(=O)[C@H](CCCCN)NC(=O)[C@@H](N)CCSC)[C@@H](C)O)[C@@H](C)O)C(C)C)C(=O)N[C@@H](C)C(=O)N[C@@H](Cc1c[nH]c2ccccc12)C(=O)N[C@@H](CC(C)C)C(=O)N[C@H](C(=O)N[C@@H](CCCCN)C(=O)NCC(=O)N[C@@H](CCCNC(=N)N)C(=O)O)C(C)C` [MK-GLP1, MK HAEGTFTSDVSSYLEGQAAKEFIAWLVKGR], on human GLP-1 receptor [2] (setting [4]), the EC50 was 4 nM.
Turning to `CC[C@H](C)[C@H](NC(=O)[C@H](Cc1ccccc1)NC(=O)[C@H](CCC(=O)O)NC(=O)[C@H](CCCCN)NC(=O)[C@H](C)NC(=O)[C@H](C)NC(=O)[C@H](CCC(N)=O)NC(=O)CNC(=O)[C@H](CCC(=O)O)NC(=O)[C@H](CC(C)C)NC(=O)[C@H](Cc1ccc(O)cc1)NC(=O)[C@H](CO)NC(=O)[C@H](CO)NC(=O)[C@@H](NC(=O)[C@H](CC(=O)O)NC(=O)[C@H](CO)NC(=O)[C@@H](NC(=O)[C@H](Cc1ccccc1)NC(=O)[C@@H](NC(=O)CNC(=O)[C@H](CCC(=O)O)NC(=O)[C@H](C)NC(=O)[C@H](Cc1c[nH]cn1)NC(=O)[C@H](Cc1c[nH]cn1)NC(=O)[C@@H](N)CCSC)[C@@H](C)O)[C@@H](C)O)C(C)C)C(=O)N[C@@H](C)C(=O)N[C@@H](Cc1c[nH]c2ccccc12)C(=O)N[C@@H](CC(C)C)C(=O)N[C@H](C(=O)N[C@@H](CCCCN)C(=O)NCC(=O)N[C@@H](CCCNC(=N)N)C(=O)O)C(C)C` [MH-GLP1, MH HAEGTFTSDVSSYLEGQAAKEFIAWLVKGR], the IC50 on human GLP-1 receptor [1] was 350 nM.
Turning to `CC[C@H](C)[C@H](NC(=O)[C@H](Cc1ccccc1)NC(=O)[C@H](CCC(=O)O)NC(=O)[C@H](CCCCN)NC(=O)[C@H](C)NC(=O)[C@H](C)NC(=O)[C@H](CCC(N)=O)NC(=O)CNC(=O)[C@H](CCC(=O)O)NC(=O)[C@H](CC(C)C)NC(=O)[C@H](Cc1ccc(O)cc1)NC(=O)[C@H](CO)NC(=O)[C@H](CO)NC(=O)[C@@H](NC(=O)[C@H](CC(=O)O)NC(=O)[C@H](CO)NC(=O)[C@@H](NC(=O)[C@H](Cc1ccccc1)NC(=O)[C@@H](NC(=O)CNC(=O)[C@H](CCC(=O)O)NC(=O)[C@H](C)NC(=O)[C@H](Cc1c[nH]cn1)NC(=O)[C@H](CCC(N)=O)NC(=O)[C@@H](N)CCSC)[C@@H](C)O)[C@@H](C)O)C(C)C)C(=O)N[C@@H](C)C(=O)N[C@@H](Cc1c[nH]c2ccccc12)C(=O)N[C@@H](CC(C)C)C(=O)N[C@H](C(=O)N[C@@H](CCCCN)C(=O)NCC(=O)N[C@@H](CCCNC(=N)N)C(=O)O)C(C)C` [MQ-GLP1, MQ HAEGTFTSDVSSYLEGQAAKEFIAWLVKGR], the EC50 was 3 nM on mouse GLP-1 receptor and 0.5 nM at human GLP-1 receptor [2] (setting [4]).
On to “cgGLP-13: SEQ ID NO: 8 + 20k PEG monomer (HGEGTFTSDVSSYLEGC(PEG 20 kDa)AAKEFIAWLKNGGPSSGAPPPS)”, for which the IC50 in the assay with human GLP-1 receptor [1] (setting [3]) is over 1000 nM. The EC50 in the assay with human GLP-1 receptor [2] (setting [4]) is 1 nM.
In the case of `CC[C@H](C)[C@H](NC(=O)[C@H](Cc1ccccc1)NC(=O)[C@H](CCC(=O)O)NC(=O)[C@@H]1CCC(=O)NCCCC[C@H](NC(=O)[C@H](CCC(=O)O)NC(=O)[C@H](CC(C)C)NC(=O)[C@H](Cc2ccc(O)cc2)NC(=O)[C@H](CO)NC(=O)[C@H](CO)NC(=O)[C@@H](NC(=O)[C@H](CC(=O)O)NC(=O)[C@H](CO)NC(=O)[C@@H](NC(=O)[C@H](Cc2ccccc2)NC(=O)[C@@H](NC(=O)CNC(=O)[C@H](CCC(=O)O)NC(=O)CNC(=O)[C@@H](N)Cc2c[nH]cn2)[C@@H](C)O)[C@@H](C)O)C(C)C)C(=O)N[C@@H](CCC(N)=O)C(=O)N[C@@H](C)C(=O)N[C@@H](C)C(=O)N1)C(=O)N[C@@H](C)C(=O)N[C@@H](Cc1c[nH]c2ccccc12)C(=O)N[C@@H](CC(C)C)C(=O)N[C@H](C(=O)N[C@@H](CCCCN)C(=O)NCC(=O)N[C@@H](CCCNC(=N)N)C(=O)NCC(N)=O)C(C)C` [GLP1(7-37) cyclo[Lys16-Glu20], HGEGTFTSDVSSYLEKQAAEEFIAWLVKGRG AMIDE] (H-HGEGTFTSDVSSYLEKQAAEEFIAWLVKGRG-NH2; lactam 16-20), at human GLP-1 receptor [2], the EC50 came to 0.016 nM.
For `CC[C@H](C)[C@H](NC(=O)[C@H](Cc1ccccc1)NC(=O)[C@H](CCC(=O)O)NC(=O)[C@H](CCCCN)NC(=O)[C@H](C)NC(=O)[C@H](C)NC(=O)[C@H](CCC(N)=O)NC(=O)CNC(=O)[C@H](CCC(=O)O)NC(=O)[C@H](CC(C)C)NC(=O)[C@H](Cc1ccc(O)cc1)NC(=O)[C@H](CO)NC(=O)[C@H](CO)NC(=O)[C@@H](NC(=O)[C@H](CC(=O)O)NC(=O)[C@H](CO)NC(=O)[C@@H](NC(=O)[C@H](Cc1ccccc1)NC(=O)[C@@H](NC(=O)CNC(=O)[C@H](CCC(=O)O)NC(=O)[C@H](C)NC(=O)[C@H](Cc1c[nH]cn1)NC(=O)[C@H](Cc1c[nH]c2ccccc12)NC(=O)[C@@H](N)CCSC)[C@@H](C)O)[C@@H](C)O)C(C)C)C(=O)N[C@@H](C)C(=O)N[C@@H](Cc1c[nH]c2ccccc12)C(=O)N[C@@H](CC(C)C)C(=O)N[C@H](C(=O)N[C@@H](CCCCN)C(=O)NCC(=O)N[C@@H](CCCNC(=N)N)C(=O)O)C(C)C` [MW-GLP1, MW HAEGTFTSDVSSYLEGQAAKEFIAWLVKGR], the EC50 is 5 nM on mouse GLP-1 receptor and 0.8 nM at human GLP-1 receptor [2] (setting [4]).
In the assay with human GLP-1 receptor [1] (setting [3]), “cgGLP-1: SEQ ID NO: 6 + 20K PEG (HGEGTFTSDVSSYLEGC(PEG 20 kDa)AAKEFIAWLVKGRG)” gave an IC50 of over 1000 nM. Also, the EC50 in the assay with human GLP-1 receptor [2] (setting [4]) was 12 nM.
As for “cgGLP-2: SEQ ID NO: 6 + 40k branched PEG (HGEGTFTSDVSSYLEGC(branched PEG 40 kDa)AAKEFIAWLVKGRG)”, in the assay with human GLP-1 receptor [1] (setting [3]), the IC50 was over 1000 nM. Moreover, the EC50 with human GLP-1 receptor [2] (setting [4]) was 0.7 nM.
With `CC[C@H](C)[C@H](NC(=O)[C@H](Cc1ccccc1)NC(=O)[C@H](CCC(=O)O)NC(=O)[C@H](CCCCN)NC(=O)[C@H](C)NC(=O)[C@H](C)NC(=O)[C@H](CCC(N)=O)NC(=O)CNC(=O)[C@H](CCC(=O)O)NC(=O)[C@H](CC(C)C)NC(=O)[C@H](Cc1ccc(O)cc1)NC(=O)[C@H](CO)NC(=O)[C@H](CO)NC(=O)[C@@H](NC(=O)[C@H](CC(=O)O)NC(=O)[C@H](CO)NC(=O)[C@@H](NC(=O)[C@H](Cc1ccccc1)NC(=O)[C@@H](NC(=O)CNC(=O)[C@H](CCC(=O)O)NC(=O)[C@H](C)NC(=O)[C@H](Cc1c[nH]cn1)NC(=O)[C@H](CCC(=O)O)NC(=O)[C@@H](N)CCSC)[C@@H](C)O)[C@@H](C)O)C(C)C)C(=O)N[C@@H](C)C(=O)N[C@@H](Cc1c[nH]c2ccccc12)C(=O)N[C@@H](CC(C)C)C(=O)N[C@H](C(=O)N[C@@H](CCCCN)C(=O)NCC(=O)N[C@@H](CCCNC(=N)N)C(=O)O)C(C)C` [ME-GLP1, ME HAEGTFTSDVSSYLEGQAAKEFIAWLVKGR], the EC50 at mouse GLP-1 receptor came to 4 nM; on human GLP-1 receptor [2] (setting [4]), 1 nM.
